Experimental data reported in patent US7595313B2, “Nitric oxide donating diuretic compounds, compositions and methods of use” (NicOx, S.A., priority 2005, dated 2009).
Counter-ions that a name gives are not always drawn.

System: Male Wistar rats
Assay: Determination of the diuresis (urine volume over 6 hours after oral dosing)
Assay type: in vivo, rat
Details: p.o. 3 mg/kg in 0.5% Methocel, male Wistar rats, 6 hours, mean ± SEM, n=6 or 7
Method: Procedures were approved by the Institutional Animal Care and Use Committee of NitroMed, Inc. Male Wistar rats (180-200 g) were purchased from Charles River Laboratories (Kingston, N.Y. or Raleigh, N.C.) and allowed to acclimate in the facility for a period of at least 72 h. Rats were randomly housed 2-3 per cage in a light-controlled room with a 12 hour light/dark cycle and allowed ad libitum access to food and water.
Prior to the experiment, each rat was placed in a metabolic cage and allowed to acclimate for a period of 24-48 hours with food and water ad libitum. During this acclimation period, rats received mash food instead of pellet food to prevent contamination of the urine samples. All rats were fasted for 18 hours prior to experimentation. In addition, water was removed 90 minutes prior to oral dosing with test compound or vehicle.
The test compounds were prepared immediately prior to dosing in 0.5% Methocel (F4M Premium Hydroxypropyl Methylcellulose, lot # PF12012N12; Dow Chemical Company, USA) and homogenized with a glass/Teflon pestle motorized homogenizer. Gently vortexed test compounds were administered intragastrically (p.o.; 30 mg/kg or 3 mg/kg) at a dose volume of 3 ml per rat using an 18 gauge gavage needle. Urine volume (ml) was monitored and urine was collected for subsequent electrolyte analysis over a 6 hours period. […] Data are expressed as mean ±SEM; n=6 or 7.

Row | Compound | Urine collected in 6 hours (mL) (3 mg/kg)
1 | NS(=O)(=O)c1cc2c(cc1Cl)NC(CBr)NS2(=O)=O (stereo not shown) [Example 36a, 2H-1,2,4-Benzothiadiazine-7-sulfonamide, 3-(bromomethyl)-6-chloro-3,4-dihydro-, 1,1-dioxide] | 5.5 ± 0.6
2 | NS(=O)(=O)c1cc2c(cc1Cl)NCN(CC(=O)O)S2(=O)=O [Example 31a, 2H-1,2,4-Benzothiadiazine-2-acetic acid, 7-(aminosulfonyl)-6-chloro-3,4-dihydro-, 1,1-dioxide] | 2.5 ± 0.3
3 | NS(=O)(=O)c1cc2c(cc1Cl)NCN(CCOC(=O)CCCCO[N+](=O)[O-])S2(=O)=O [Example 44, Pentanoic acid, 5-(nitrooxy)-, 2-[7-(aminosulfonyl)-6-chloro-3,4-dihydro-1,1-dioxido-2H-1,2,4-benzothiadiazin-2-yl]ethyl ester] | 2.5 ± 0.3
4 | NC1=Nc2cc(Cl)c(S(N)(=O)=O)cc2S(=O)(=O)N1 [Example 4b, 2H-1,2,4-Benzothiadiazine-7-sulfonamide, 3-amino-6-chloro-, 1,1-dioxide] | 4.0 ± 0.5
5 | NS(=O)(=O)c1cc2c(cc1Cl)NC(CN1CCC(CCO[N+](=O)[O-])CC1)NS2(=O)=O.O=C(O)CC(O)(CC(=O)O)C(=O)O (stereo not shown) [Example 36c, 2H-1,2,4-Benzothiadiazine-7-sulfonamide, 6-chloro-3,4-dihydro-3-[[4-[2-(nitrooxy)ethyl]-1-piperidinyl]methyl]-, 1,1-dioxide, 2-hydroxy-1,2,3-propanetricarboxylate (1:1) (salt)] | 3.0 ± 0.4
6 | NS(=O)(=O)c1cc2c(cc1Cl)NCN(CC(O)CO)S2(=O)=O (stereo not shown) [Example 75b, 2H-1,2,4-Benzothiadiazine-7-sulfonamide, 6-chloro-2-(2,3-dihydroxypropyl)-3,4-dihydro-, 1,1-dioxide] | 4.6 ± 0.6
7 | NS(=O)(=O)c1cc2c(cc1Cl)NCN(CCCCO[N+](=O)[O-])S2(=O)=O [Example 40b, 2H-1,2,4-Benzothiadiazine-7-sulfonamide, 6-chloro-3,4-dihydro-2-[4-(nitrooxy)butyl]-, 1,1-dioxide] | 6.0 ± 0.7
8 | NS(=O)(=O)c1cc2c(cc1Cl)NCN(CCCOc1cc(CO)cc(CO)c1)S2(=O)=O [Example 70b, 2H-1,2,4-Benzothiadiazine-7-sulfonamide, 2-[3-[3,5-bis(hydroxymethyl)phenoxy]propyl]-6-chloro-3,4-dihydro-, 1,1-dioxide] | 2.8 ± 0.7
9 | NS(=O)(=O)c1cc2c(cc1Cl)NCN(CCOc1cc(CO)cc(CO)c1)S2(=O)=O [Example 71b, 2H-1,2,4-Benzothiadiazine-7-sulfonamide, 2-[2-[3,5-bis(hydroxymethyl)phenoxy]ethyl]-6-chloro-3,4-dihydro-, 1,1-dioxide] | 2.1 ± 0.5
10 | NS(=O)(=O)c1cc2c(cc1Cl)NCN(CCCCOc1cc(CO)cc(CO)c1)S2(=O)=O [Example 69a, 2H-1,2,4-Benzothiadiazine-7-sulfonamide, 2-[4-[3,5-bis(hydroxymethyl)phenoxy]butyl]-6-chloro-3,4-dihydro-, 1,1-dioxide] | 2.7 ± 0.6

Same assay, conditions: p.o. 30 mg/kg in 0.5% Methocel, male Wistar rats, 6 hours, mean ± SEM, n=6 or 7

Row | Compound | Urine collected in 6 hours (mL) (30 mg/kg)
11 | NS(=O)(=O)c1cc2c(cc1Cl)N=C(NC(=O)CCCCCO[N+](=O)[O-])NS2(=O)=O [Example 5b, Hexanamide, N-[7-(aminosulfonyl)-6-chloro-1,1-dioxido-2H-1,2,4-benzothiadiazin-3-yl]-6-(nitrooxy)-] | 4.5 ± 0.5
12 | NS(=O)(=O)c1cc2c(cc1Cl)N[C@@H](CCCCO[N+](=O)[O-])NS2(=O)=O (single isomer, unassigned) [17c (enantiomer 1)] | 7.0 ± 0.6
13 | CC(C)(C)OC(=O)N1CCC2(CC1)Nc1cc(C(F)(F)F)c(S(N)(=O)=O)cc1S(=O)(=O)N2 [Example 12a, Spiro[2H-1,2,4-benzothiadiazine-3(4H), 4′-piperidine]-1′-carboxylic acid, 7-(aminosulfonyl)-6-(trifluoromethyl)-, 1,1-dimethylethyl ester, 1,1-dioxide] | 4.0 ± 0.4
14 | NS(=O)(=O)c1cc2c(cc1Cl)N[C@H](CCCCO[N+](=O)[O-])NS2(=O)=O (single isomer, unassigned) [17c (enantiomer 2)] | 7.8 ± 0.5
15 | Cc1c(C2Nc3cc(C(F)(F)F)c(S(N)(=O)=O)cc3S(=O)(=O)N2)no[n+]1[O-] (stereo not shown) [Example 10, 2H-1,2,4-Benzothiadiazine-7-sulfonamide, 3,4-dihydro-3-(4-methyl-5-oxido-1,2,5-oxadiazol-3-yl)-6-(trifluoromethyl)-, 1,1-dioxide] | 6.9 ± 0.9
16 | NS(=O)(=O)c1cc2c(cc1C(F)(F)F)NC1(CCN(C(=O)c3cccc(CO[N+](=O)[O-])c3)CC1)NS2(=O)=O [Example 15b, Spiro[2H-1,2,4-benzothiadiazine-3(4H), 4′-piperidine]-7-sulfonamide, 1′-[3-[(nitrooxy)methyl]benzoyl]-6-(trifluoromethyl)-, 1,1-dioxide] | 4.5 ± 0.2

Same assay, conditions: rat, in vivo, po

Row | Compound | Urine collected in 6 hours (mL) (3 mg/kg) | Urine collected in 6 hours (mL) (30 mg/kg)
17 | NS(=O)(=O)c1cc2c(cc1Cl)NCN(C[C@@H](CO[N+](=O)[O-])O[N+](=O)[O-])S2(=O)=O (single isomer, unassigned) [75d (enantiomer 2)] | 5.5 ± 0.4 | –
18 | NS(=O)(=O)c1cc2c(cc1Cl)NCN(CC(=O)N(CCO[N+](=O)[O-])CCO[N+](=O)[O-])S2(=O)=O [Example 39, 2H-1,2,4-Benzothiadiazine-2-acetamide, 7-(aminosulfonyl)-6-chloro-3,4-dihydro-N,N-bis[2-(nitrooxy)ethyl]-, 1,1-dioxide] | 2.5 ± 0.5 | –
19 | NS(=O)(=O)c1cc2c(cc1Cl)NCN(CCOC(=O)CCC(CO[N+](=O)[O-])O[N+](=O)[O-])S2(=O)=O (stereo not shown) [Example 42, Pentanoic acid, 4,5-bis(nitrooxy)-, 2-[7-(aminosulfonyl)-6-chloro-3,4-dihydro-1,1-dioxido-2H-1,2,4-benzothiadiazin-2-yl]ethyl ester] | 6.2 ± 0.3 | –
20 | NS(=O)(=O)c1cc2c(cc1Cl)NCN(CC(=O)OC[C@H](CO[N+](=O)[O-])O[N+](=O)[O-])S2(=O)=O [Example 31b, 2H-1,2,4-Benzothiadiazine-2-acetic acid, 7-(aminosulfonyl)-6-chloro-3,4-dihydro-, (2R)-2,3-bis(nitrooxy)propyl ester, 1,1-dioxide] | 2.0 ± 0.3 | –
21 | NS(=O)(=O)c1cc2c(cc1Cl)NC1(CCN(C(=O)CCC(CO[N+](=O)[O-])O[N+](=O)[O-])CC1)NS2(=O)=O (stereo not shown) [Example 22b, Spiro[2H-1,2,4-benzothiadiazine-3(4H), 4′-piperidine]-7-sulfonamide, 1′-[4,5-bis(nitrooxy)-1-oxopentyl]-6-chloro-, 1,1-dioxide] | – | 2.5 ± 0.2
22 | NS(=O)(=O)c1cc2c(cc1Cl)NCN(CC(CO[N+](=O)[O-])O[N+](=O)[O-])S2(=O)=O (stereo not shown) [Example 75c, 2H-1,2,4-Benzothiadiazine-7-sulfonamide, 2-[2,3-bis(nitrooxy)propyl]-6-chloro-3,4-dihydro-, 1,1-dioxide] | 5.4 ± 0.6 | –
23 | NS(=O)(=O)c1cc2c(cc1Cl)NCN(C[C@H](CO[N+](=O)[O-])O[N+](=O)[O-])S2(=O)=O (single isomer, unassigned) [75d (enantiomer 1)] | 5.3 ± 0.3 | –

System: not given
Assay: not given
Details: not given

Row | melting point | Compound
24 | 75 to 77 °C | NS(=O)(=O)c1cc2c(cc1Cl)NCN(CCCCO[N+](=O)[O-])S2(=O)=O (as salt: potassium) [Example 40b, 2H-1,2,4-Benzothiadiazine-7-sulfonamide, 6-chloro-3,4-dihydro-2-[4-(nitrooxy)butyl]-, 1,1-dioxide]
25 | 113 to 117 °C | NS(=O)(=O)c1cc2c(cc1Cl)NC(CCO[N+](=O)[O-])NS2(=O)=O (stereo not shown) [Example 74b, 2H-1,2,4-Benzothiadiazine-7-sulfonamide, 6-chloro-3,4-dihydro-3-[2-(nitrooxy)ethyl]-, 1,1-dioxide]
26 | 155 °C (dec.) | NS(=O)(=O)c1cc2c(cc1Cl)NC1(CCN(C(=O)CCCCO[N+](=O)[O-])CC1)NS2(=O)=O [Example 18b, Spiro[2H-1,2,4-benzothiadiazine-3(4H), 4′-piperidine]-7-sulfonamide, 6-chloro-1′-[5-(nitrooxy)-1-oxopentyl]-, 1,1-dioxide]
27 | 148 to 151 °C (dec.) | NS(=O)(=O)c1cc2c(cc1Cl)NCN(CCCO[N+](=O)[O-])S2(=O)=O [Example 35b, 2H-1,2,4-Benzothiadiazine-7-sulfonamide, 6-chloro-3,4-dihydro-2-[3-(nitrooxy)propyl]-, 1,1-dioxide]
28 | > 260 °C | NS(=O)(=O)c1cc2c(cc1Cl)NC(Cc1ccc(CO[N+](=O)[O-])cc1)=NS2(=O)=O [Example 29d, 4H-1,2,4-Benzothiadiazine-7-sulfonamide, 6-chloro-3-[[4-[(nitrooxy)methyl]phenyl]methyl]-, 1,1-dioxide]
